According to US20050214759A1, “Enzymatic redox labelling of nucleic acids” (priority 2001, published 2005):

Assays:
[1] = Cyclic voltammetry of Fc-NTP; format: physicochemical; conditions: vs. Ag/AgCl; 20 mM tris-acetate pH 7.4, 100 mM KCl, 1 mM MgCl2; scan rate 20 mV/s
Text: Fc-dUTP and Fc-UTP have characteristic absorption spectra which correspond to a superposition of spectra for the modified nucleotide and ferrocene carboxamide constituents. They have a strong absorption in the UV region and a seal, broad peak characteristics of ferrocene near 440 nm. Cyclic voltammetry of Fc-dUTP yields a symmetric peak with E1/2=398 mV vs. Ag/AgCl, consistent with reversible redox reaction of the Fc moiety. The redox potential of Fc-dUTP is 90 mV greater than the potential of ferrocenecarboxylate (310 mV vs. Ag/AgCl) measured in the same buffer (data now shown), reflecting the change of pentadienyl ring substituent (—COO to —CONHR) to one which is more electron-withdrawing. The observed potential is close to that reported for a ferrocene carboxamide moiety attached to the 5′-end of DNA oligonucleotides in aqueous buffer (406-425 mV vs. Ag/AgCl).
Cyclic voltammograms were recorded with an electrochemical analyser (BAS). The three-electrode system consisted of a glassy carbon working electrode, a Ag/AgCl (saturated KCl) reference electrode (Eref=206 mV) and a platinum counter electrode. Experiments were performed in a 5 ml electrochemical cell containing 0.8 mM Fc-NTP in 20 mM tris-acetate (pH 7.4), 100 mM KCl, and 1 mM MgCl2 at a scan rate of 20 mV/s. The scan range was from −0.1 to +0.8 V (vs. Ag/AgCl). (See FIG. 2).

T7 RNA polymerase = target: T1, T7 RNA polymerase (Escherichia phage T7, UniProt P00573); assay: Incorporation of Fc-UTP into RNA in the course of transcription; format: biochemical
T1 construct: purchased USB
T1 sequence (P00573 whole entry): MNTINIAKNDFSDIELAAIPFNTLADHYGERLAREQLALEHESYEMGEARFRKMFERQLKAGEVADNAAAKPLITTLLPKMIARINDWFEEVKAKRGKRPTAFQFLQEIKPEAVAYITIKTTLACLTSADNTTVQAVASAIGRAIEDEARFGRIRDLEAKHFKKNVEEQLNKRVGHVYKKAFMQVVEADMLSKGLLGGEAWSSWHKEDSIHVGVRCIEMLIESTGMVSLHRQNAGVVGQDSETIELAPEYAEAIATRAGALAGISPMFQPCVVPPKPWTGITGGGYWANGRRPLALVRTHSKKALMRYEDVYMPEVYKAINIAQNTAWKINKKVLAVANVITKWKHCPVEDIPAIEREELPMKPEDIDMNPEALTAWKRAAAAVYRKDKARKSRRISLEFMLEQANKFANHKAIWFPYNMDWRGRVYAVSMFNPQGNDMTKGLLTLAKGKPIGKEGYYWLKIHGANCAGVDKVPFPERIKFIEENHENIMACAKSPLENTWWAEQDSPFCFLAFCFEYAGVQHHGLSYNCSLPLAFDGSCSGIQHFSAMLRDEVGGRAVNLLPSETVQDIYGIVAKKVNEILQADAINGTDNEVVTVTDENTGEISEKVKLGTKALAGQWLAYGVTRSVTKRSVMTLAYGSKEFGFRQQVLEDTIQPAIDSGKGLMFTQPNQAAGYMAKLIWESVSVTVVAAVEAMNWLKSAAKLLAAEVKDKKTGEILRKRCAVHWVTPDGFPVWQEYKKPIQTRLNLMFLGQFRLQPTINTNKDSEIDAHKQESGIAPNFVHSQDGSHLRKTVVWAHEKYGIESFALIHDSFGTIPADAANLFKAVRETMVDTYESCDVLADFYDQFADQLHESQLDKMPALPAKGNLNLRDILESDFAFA
Method: Circular plasmid pT7Mta which contains the promoter for T7 RNA polymerase followed by the gene for aptamer C40 and a T7 terminator sequence was used for transcription. T7 RNA polymerase tends to produce short abortive RNA transcripts when modified nucleotides are incorporated into the first 12 nucleotides of RNA.
A typical transcription mixture (10 μL) contained 40 mM tris-HCl (pH 8.0), 15 mM MgCl2, 5 mM DTT, 0.05 mg/mL BSA, 1 UOL Rnasin, 0.4 mM NTPs, 10 ug/mL pT7Mta template, and 10U/uL T7 RNA polymerase. In some reaction mixtures, UTP was partially or fully substituted with […] in such a way that the total concentration of UTP and Fc-UTP was still 0.4 mM. Reaction mixtures were incubated at 37° C. for 2 h. Reactions were stopped by addition of 10 μL of gel loading buffer (98% formamide, 10 mM EDTA (pH 8.0), 0.025% bromophenol blue and 0.025% xylene cyanole PF) and heated at 95° C. for 2 min. RNA fragments were separated by 10% PAGE/8 M urea. The gel was stained by SYBR Green II (Sigma) according to manufacturers procedure, and visualised on a Fluorimager (Bio-Rad).

ferrocenecarboxylate [reference compound]
E1/2 (redox potential) [1]: 310 mV

O=C(NCC=Cc1cn([C@@H]2O[C@H](COP(=O)(O)OP(=O)(O)OP(=O)(O)O)[C@@H](O)[C@H]2O)c(=O)[nH]c1=O)[c-]1cccc1.[Fe+2].c1cc[cH-]c1 [Fc-UTP, 5-(3ferrocenecarboxamidopropenyl-1)-uridine-5′-triphosphate]
amount of RNA product formed (T7 RNA polymerase; substitution of UTP by Fc-UTP, total 0.4 mM): significant decrease in the amount of RNA product formed | amount of RNA product formed (T7 RNA polymerase; total absence of UTP (full substitution by Fc-UTP)): synthesized a significant amount of RNA product
